In the supplement of paper PMC10307832:

What follows are cell lines tested with CC(C)C[C@@H](C(=O)N[C@H](C(=O)OC1CCCC1)c1ccccc1)[C@H](O)C(=O)NO [Tosedostat] + CCNC(=O)c1noc(-c2cc(C(C)C)c(O)cc2O)c1-c1ccc(CN2CCOCC2)cc1 [Luminespib] (partner 0.01 µM) (assay: relative viability (nuclei count vs DMSO), 5 days (fraction); higher = more cells survive). Conditions: first compound 2 µM.
How it was run: (§1)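 The day after seeding in 1536-well plates, lung cancer cell lines were treated by pin tool with a single drug, or with a fixed anchor-drug dose together with five library-drug doses (not always all listed) in √10 steps. After 5 days, a combined fix-and-stain solution (final 0.05% Triton X-100, 1% formaldehyde, 1 ug/ml Hoechst) was added. Nuclei counted on 4× images gave relative viability as treated counts over vehicle counts, reported as the median of duplicate plates.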
Cell Line NCI-H2228 has a relative viability of 0.12.
For HCC-15, the relative viability was 0.308.
NCI-H1793 was tested, and the relative viability was 0.249.
Cell Line EKVX has a relative viability of 0.806.
With LC-2-ad the relative viability was 0.891.
For NCI-H1666, the relative viability was 1.11.
NCI-H1944 gave a relative viability of 0.748.
NCI-H2085 showed a relative viability of 0.4.
With NCI-H1650 the relative viability was 0.174.
ABC-1 gave a relative viability of 0.398.
With NCI-H358 the relative viability was 0.187.
PC-3 [JPC-3] gave a relative viability of 0.537.
LOU-NH91 was tested, and the relative viability was 0.322.

Each cell line was assayed with CC(C)C[C@@H](C(=O)N[C@H](C(=O)OC1CCCC1)c1ccccc1)[C@H](O)C(=O)NO [Tosedostat] + Cc1nc(Nc2ncc(C(=O)Nc3c(C)cccc3Cl)s2)cc(N2CCN(CCO)CC2)n1 [Dasatinib] (partner 0.075 µM) in the same assay as above. Conditions: first compound 0.02 µM.
How it was run: as §1
In the case of NCI-H1437, the relative viability is reported as 0.488.
With PC-14 the relative viability was 0.245.
CAL-12T was tested, and the relative viability was 0.316.
NCI-H1734 gave a relative viability of 0.523.
EPLC-272H was tested, and the relative viability was 0.363.
For NCI-H3122, the relative viability was 0.745.
NCI-H2009 was tested, and the relative viability was 0.279.
NCI-H520 showed a relative viability of 0.146.
Cell Line NCI-H1651 has a relative viability of 0.566.
NCI-H1993 gave a relative viability of 0.471.
In the case of NCI-H2228, the relative viability is reported as 0.51.
Cell Line HCC-15 has a relative viability of 0.64.
Cell Line NCI-H1793 has a relative viability of 0.431.
Cell Line EKVX has a relative viability of 0.586.
In the case of LC-2-ad, the relative viability is reported as 0.865.
NCI-H1666 gave a relative viability of 0.771.
For NCI-H1944, the relative viability was 0.226.
Cell Line NCI-H2085 has a relative viability of 0.205.
For NCI-H1650, the relative viability was 0.329.
Cell Line ABC-1 has a relative viability of 0.632.
Cell Line NCI-H358 has a relative viability of 0.169.
PC-3 [JPC-3] was tested, and the relative viability was 0.999.
Work on LOU-NH91 yielded a relative viability of 0.6.

Same assay, conditions: first compound 0.06325 µM
For NCI-H1437, the relative viability was 0.46.
PC-14 gave a relative viability of 0.237.
Work on CAL-12T yielded a relative viability of 0.489.
NCI-H1734 was tested, and the relative viability was 0.477.
EPLC-272H gave a relative viability of 0.353.
For NCI-H3122, the relative viability was 0.912.
For NCI-H2009, the relative viability was 0.334.
In the case of NCI-H520, the relative viability is reported as 0.202.
In the case of NCI-H1651, the relative viability is reported as 0.384.
For NCI-H1993, the relative viability was 0.561.
NCI-H2228 was tested, and the relative viability was 0.497.
With HCC-15 the relative viability was 0.625.
Work on NCI-H1793 yielded a relative viability of 0.408.
For EKVX, the relative viability was 0.565.
Cell Line LC-2-ad has a relative viability of 0.51.
NCI-H1666 gave a relative viability of 0.871.
For NCI-H1944, the relative viability was 0.211.
In the case of NCI-H2085, the relative viability is reported as 0.234.
For NCI-H1650, the relative viability was 0.362.
ABC-1 showed a relative viability of 0.598.
NCI-H358 gave a relative viability of 0.183.
With PC-3 [JPC-3] the relative viability was 1.06.
With LOU-NH91 the relative viability was 0.584.

Same assay, conditions: first compound 0.2 µM
NCI-H1437 was tested, and the relative viability was 0.415.
PC-14 gave a relative viability of 0.263.
For CAL-12T, the relative viability was 0.472.
NCI-H1734 was tested, and the relative viability was 0.436.
Cell Line EPLC-272H has a relative viability of 0.316.
With NCI-H3122 the relative viability was 0.925.
With NCI-H2009 the relative viability was 0.226.
For NCI-H1651, the relative viability was 0.411.
Cell Line NCI-H1993 has a relative viability of 0.502.
In the case of NCI-H2228, the relative viability is reported as 0.494.
Cell Line HCC-15 has a relative viability of 0.578.
Work on NCI-H1793 yielded a relative viability of 0.388.
For EKVX, the relative viability was 0.548.
For LC-2-ad, the relative viability was 0.675.
With NCI-H1666 the relative viability was 0.854.
For NCI-H1944, the relative viability was 0.215.
Work on NCI-H2085 yielded a relative viability of 0.256.
NCI-H1650 showed a relative viability of 0.346.
ABC-1 showed a relative viability of 0.519.
NCI-H358 showed a relative viability of 0.208.
Cell Line PC-3 [JPC-3] has a relative viability of 0.929.
LOU-NH91 showed a relative viability of 0.568.

Same assay, conditions: first compound 0.6325 µM
Work on NCI-H1437 yielded a relative viability of 0.323.
PC-14 showed a relative viability of 0.192.
CAL-12T showed a relative viability of 0.381.
NCI-H1734 showed a relative viability of 0.466.
EPLC-272H gave a relative viability of 0.299.
Cell Line NCI-H3122 has a relative viability of 0.915.
Work on NCI-H2009 yielded a relative viability of 0.267.
NCI-H520 showed a relative viability of 0.243.
With NCI-H1651 the relative viability was 0.399.
NCI-H1993 was tested, and the relative viability was 0.519.
With NCI-H2228 the relative viability was 0.344.
For HCC-15, the relative viability was 0.559.
NCI-H1793 showed a relative viability of 0.316.
Cell Line EKVX has a relative viability of 0.588.
LC-2-ad showed a relative viability of 0.602.
NCI-H1666 was tested, and the relative viability was 0.848.
For NCI-H1944, the relative viability was 0.208.
NCI-H2085 showed a relative viability of 0.276.
For NCI-H1650, the relative viability was 0.448.
ABC-1 was tested, and the relative viability was 0.563.
NCI-H358 showed a relative viability of 0.211.
PC-3 [JPC-3] was tested, and the relative viability was 0.621.
Work on LOU-NH91 yielded a relative viability of 0.51.

Same assay, conditions: first compound 2 µM
NCI-H1437 showed a relative viability of 0.327.
For PC-14, the relative viability was 0.208.
In the case of CAL-12T, the relative viability is reported as 0.217.
In the case of NCI-H1734, the relative viability is reported as 0.446.
With EPLC-272H the relative viability was 0.177.
NCI-H3122 showed a relative viability of 0.711.
NCI-H2009 showed a relative viability of 0.24.
For NCI-H520, the relative viability was 0.28.
NCI-H1651 was tested, and the relative viability was 0.338.
NCI-H1993 was tested, and the relative viability was 0.505.
NCI-H2228 showed a relative viability of 0.338.
HCC-15 was tested, and the relative viability was 0.462.
Work on NCI-H1793 yielded a relative viability of 0.37.
With EKVX the relative viability was 0.512.
Work on LC-2-ad yielded a relative viability of 0.337.
NCI-H1666 was tested, and the relative viability was 0.874.
In the case of NCI-H1944, the relative viability is reported as 0.194.
For NCI-H2085, the relative viability was 0.307.
Work on NCI-H1650 yielded a relative viability of 0.311.
For ABC-1, the relative viability was 0.481.
For NCI-H358, the relative viability was 0.208.
For PC-3 [JPC-3], the relative viability was 0.7.
Cell Line LOU-NH91 has a relative viability of 0.42.

The cell lines below were run with CC1=NN=C(O1)C2=NN=C(C=C2)N3CCC(CC3)OC4=C(C=CC(=C4)F)Cl + Cc1cc(Nc2cc(N3CCN(C)CC3)nc(Sc3ccc(NC(=O)C4CC4)cc3)n2)n[nH]1 [Tozasertib] (partner 0.1 µM) in the same assay as above. Conditions: first compound 0.253 µM.
How it was run: as §1
For NCI-H1437, the relative viability was 0.256.
With PC-14 the relative viability was 0.523.
For CAL-12T, the relative viability was 0.26.
In the case of NCI-H1734, the relative viability is reported as 0.262.
Cell Line EPLC-272H has a relative viability of 0.36.
NCI-H3122 gave a relative viability of 0.151.
For NCI-H2009, the relative viability was 0.372.
NCI-H1651 showed a relative viability of 0.58.
Cell Line NCI-H1993 has a relative viability of 0.558.
Cell Line NCI-H2228 has a relative viability of 0.214.
For HCC-15, the relative viability was 0.281.
NCI-H1793 showed a relative viability of 0.368.
EKVX was tested, and the relative viability was 0.258.
LC-2-ad was tested, and the relative viability was 0.38.
With NCI-H1666 the relative viability was 0.43.
NCI-H1944 showed a relative viability of 0.22.
NCI-H2085 showed a relative viability of 0.454.
ABC-1 was tested, and the relative viability was 0.17.
For NCI-H358, the relative viability was 0.107.
With PC-3 [JPC-3] the relative viability was 0.774.
LOU-NH91 gave a relative viability of 0.585.

Same assay, conditions: first compound 0.8 µM
With NCI-H1437 the relative viability was 0.204.
Work on CAL-12T yielded a relative viability of 0.241.
NCI-H1734 was tested, and the relative viability was 0.287.
EPLC-272H was tested, and the relative viability was 0.228.
NCI-H3122 showed a relative viability of 0.137.
In the case of NCI-H2009, the relative viability is reported as 0.39.
Work on NCI-H520 yielded a relative viability of 0.38.
Cell Line NCI-H1651 has a relative viability of 0.66.
NCI-H1993 gave a relative viability of 0.603.
With NCI-H2228 the relative viability was 0.198.
In the case of HCC-15, the relative viability is reported as 0.29.
NCI-H1793 was tested, and the relative viability was 0.302.
With EKVX the relative viability was 0.15.
LC-2-ad showed a relative viability of 0.354.
For NCI-H1666, the relative viability was 0.496.
Work on NCI-H1944 yielded a relative viability of 0.216.
With NCI-H2085 the relative viability was 0.614.
Cell Line NCI-H1650 has a relative viability of 0.357.
With ABC-1 the relative viability was 0.193.
In the case of NCI-H358, the relative viability is reported as 0.0958.
PC-3 [JPC-3] gave a relative viability of 0.813.
LOU-NH91 showed a relative viability of 0.587.

Same assay, conditions: first compound 2.53 µM
NCI-H1437 showed a relative viability of 0.228.
For PC-14, the relative viability was 0.433.
CAL-12T was tested, and the relative viability was 0.227.
NCI-H1734 showed a relative viability of 0.216.
Work on EPLC-272H yielded a relative viability of 0.184.
Cell Line NCI-H3122 has a relative viability of 0.144.
For NCI-H2009, the relative viability was 0.376.
With NCI-H520 the relative viability was 0.398.
With NCI-H1651 the relative viability was 0.567.
In the case of NCI-H1993, the relative viability is reported as 0.635.
NCI-H2228 was tested, and the relative viability was 0.212.
With HCC-15 the relative viability was 0.274.
NCI-H1793 gave a relative viability of 0.219.
With EKVX the relative viability was 0.196.
Work on LC-2-ad yielded a relative viability of 0.359.
NCI-H1666 gave a relative viability of 0.458.
Cell Line NCI-H1944 has a relative viability of 0.213.
For NCI-H2085, the relative viability was 0.538.
For NCI-H1650, the relative viability was 0.361.
In the case of ABC-1, the relative viability is reported as 0.178.
With NCI-H358 the relative viability was 0.116.
PC-3 [JPC-3] gave a relative viability of 0.797.
For LOU-NH91, the relative viability was 0.664.

Same assay, conditions: first compound 8 µM
For NCI-H1437, the relative viability was 0.175.
In the case of PC-14, the relative viability is reported as 0.557.
CAL-12T showed a relative viability of 0.216.
NCI-H1734 gave a relative viability of 0.247.
Cell Line EPLC-272H has a relative viability of 0.158.
NCI-H3122 showed a relative viability of 0.155.
NCI-H2009 showed a relative viability of 0.353.
NCI-H520 gave a relative viability of 0.443.
Cell Line NCI-H1651 has a relative viability of 0.571.
In the case of NCI-H1993, the relative viability is reported as 0.571.
Cell Line NCI-H2228 has a relative viability of 0.207.
HCC-15 was tested, and the relative viability was 0.278.
NCI-H1793 showed a relative viability of 0.195.
EKVX showed a relative viability of 0.196.
LC-2-ad gave a relative viability of 0.344.
Work on NCI-H1666 yielded a relative viability of 0.388.
Cell Line NCI-H1944 has a relative viability of 0.229.
NCI-H2085 showed a relative viability of 0.515.
With NCI-H1650 the relative viability was 0.235.
ABC-1 showed a relative viability of 0.177.
NCI-H358 showed a relative viability of 0.0977.
PC-3 [JPC-3] was tested, and the relative viability was 0.67.
Cell Line LOU-NH91 has a relative viability of 0.677.
